Measurements published in US7998949B2, “Bicyclic heterocycles, drugs containing said compounds, use thereof, and method for production thereof” (Boehringer Ingelheim International GmbH, priority 2007, dated 2011).

What follows are compounds tested against T1, human EGF-R (Homo sapiens, UniProt P00533) (assay: Inhibition of the EGFR-dependent proliferation (EGF-stimulated cell line expressing human EGF-R, Cell Titer 96 assay)). Details: murine haematopoietic cell line expressing functional human EGF-R; 20 ng/ml human EGF; 48 hours at 37° C.
T1 construct: expressed in transfected cells
Format: cell-based
Experimental: A murine haematopoietic cell line is genetically modified so as to express functional human EGF-R. The proliferation of this cell line can therefore be stimulated by EGF.
The test is carried out as follows: • The cells are cultivated in RPMI/1640 medium. The proliferation is stimulated with 20 ng/ml of human EGF (Promega). To investigate the inhibitory activity of the compounds according to the invention these compounds are dissolved in 100% dimethylsulphoxide (DMSO) and added to the cultures in various dilutions, the maximum DMSO concentration being 1%. The cultures are incubated for 48 hours at 37° C.
In order to determine the inhibitory activity of the compounds according to the invention the relative cell number is measured in O.D. units using the Cell Titer 96™ AQueous Non-Radioactive Cell Proliferation Assay (Promega). The relative cell number is calculated as a percentage of the control and the concentration of active substance which inhibits the proliferation of the cells by 50% (IC50) is derived therefrom.

T1 sequence (P00533 25-1210): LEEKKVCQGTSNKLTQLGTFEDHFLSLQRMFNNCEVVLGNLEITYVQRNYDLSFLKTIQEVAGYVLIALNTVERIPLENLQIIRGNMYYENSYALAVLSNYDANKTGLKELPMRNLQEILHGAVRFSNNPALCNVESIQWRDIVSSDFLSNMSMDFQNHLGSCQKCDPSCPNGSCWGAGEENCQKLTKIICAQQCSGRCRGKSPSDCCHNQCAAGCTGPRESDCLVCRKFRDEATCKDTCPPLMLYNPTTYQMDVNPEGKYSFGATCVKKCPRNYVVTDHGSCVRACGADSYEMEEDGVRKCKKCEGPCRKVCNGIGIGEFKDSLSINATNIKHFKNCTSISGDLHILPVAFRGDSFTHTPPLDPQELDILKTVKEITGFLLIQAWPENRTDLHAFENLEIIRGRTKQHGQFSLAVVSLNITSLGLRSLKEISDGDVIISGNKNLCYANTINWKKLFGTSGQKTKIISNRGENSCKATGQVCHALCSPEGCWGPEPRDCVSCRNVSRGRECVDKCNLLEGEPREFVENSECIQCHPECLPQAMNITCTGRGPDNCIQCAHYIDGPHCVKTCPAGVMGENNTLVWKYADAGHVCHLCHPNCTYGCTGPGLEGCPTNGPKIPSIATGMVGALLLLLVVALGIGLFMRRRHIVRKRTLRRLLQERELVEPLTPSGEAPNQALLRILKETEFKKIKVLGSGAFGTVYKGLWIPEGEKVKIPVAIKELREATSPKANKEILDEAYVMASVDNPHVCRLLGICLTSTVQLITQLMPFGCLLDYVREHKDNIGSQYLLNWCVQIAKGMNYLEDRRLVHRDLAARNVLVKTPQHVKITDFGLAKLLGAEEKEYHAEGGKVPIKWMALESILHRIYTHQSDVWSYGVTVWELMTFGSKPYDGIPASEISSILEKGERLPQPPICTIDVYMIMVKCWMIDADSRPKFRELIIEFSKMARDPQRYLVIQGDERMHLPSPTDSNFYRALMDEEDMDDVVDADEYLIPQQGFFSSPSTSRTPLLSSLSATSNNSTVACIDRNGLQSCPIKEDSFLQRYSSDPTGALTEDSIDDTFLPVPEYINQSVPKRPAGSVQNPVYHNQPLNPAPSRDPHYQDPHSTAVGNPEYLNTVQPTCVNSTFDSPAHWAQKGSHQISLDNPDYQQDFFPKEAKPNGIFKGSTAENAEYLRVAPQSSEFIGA

Structure (SMILES)	IC50 [nM]
COc1cc2ncnc(Nc3cccc(Cl)c3F)c2cc1O[C@H]1CC[C@H](N2CCNC(=O)C2)CC1 [1(3) (trans compound), 4-[(3-chloro-2-fluoro-phenyl)amino]-6-[trans-4-(3-oxo-piperazin-1-yl)-cyclohexyloxy]-7-methoxy-quinazoline]	1
COc1cc2ncnc(Nc3cccc(Cl)c3F)c2cc1O[C@H]1CC[C@H](N2CCC[C@H]2C(N)=O)CC1 [1(5) (trans compound), 4-[(3-chloro-2-fluoro-phenyl)amino]-6-{(S)-trans-4-[2-(aminocarbonyl)-pyrrolidin-1-yl]-cyclohexyloxy]-7-methoxy-quinazoline]	1
COc1cc2ncnc(Nc3cccc(Cl)c3F)c2cc1O[C@H]1CC[C@H](N2CCN(C)C(=O)C2)CC1 [(36)]	1
COc1cc2ncnc(Nc3cccc(Cl)c3F)c2cc1O[C@H]1CC[C@H](N2CCC(C#N)CC2)CC1 [(44)]	1

Now from value to compound:

IC50 [nM]	Structure (SMILES)
1	COc1cc2ncnc(Nc3cccc(Cl)c3F)c2cc1O[C@H]1CC[C@H](N2CCOCC2)CC1 [1 (trans compound), 4-[(3-chloro-2-fluoro-phenyl)amino]-6-[trans-4-(morpholin-4-yl)-cyclohexyloxy]-7-methoxy-quinazoline]
1	COc1cc2ncnc(Nc3cccc(Cl)c3F)c2cc1O[C@H]1CC[C@H](N2CC[C@@H](O)C2)CC1 [1(1) (trans compound), 4-[(3-chloro-2-fluoro-phenyl)amino]-6-[(R)-trans-4-(3-hydroxy-pyrrolidin-1-yl)-cyclohexyloxy]-7-methoxy-quinazoline]
